Measurements taken from patent US5369112A, “Method of treating cataracts caused by active oxygen” (Mitsubishi Gas Chemical Company, Inc., priority 1991, dated 1994).
Where two headings read alike, the source gives them in different places.

Assays:
[1] = tested on: Hydrocortisone-Induced Cataract of Hen's Eggs; experiment: Effect on hydrocortisone-induced cataract of hen's eggs; format: in vivo, white leghorn (hen's eggs); settings: 1 μmole at 3, 10 and 20 h after hydrocortisone; lens at 48 h
Method: Fertilized eggs of white leghorn were incubated in an incubator at a temperature of 37° C. and 70% in humidity. The day on which the incubation was started was taken to be one day old. […] eggs of 15 day old were prepared and divided into 7 groups, each of which included 5 eggs (A-G). A small hole was bored through the eggshell above air chamber of the eggs of groups B-G and 0.25 μmole (as 0.2 ml solution) of hydrocortisone sodium succinate was administered into the air chamber through the hole and then, the hole was sealed with a cellophane tape. To The eggs of groups C-G was administered 1 μmole of following compounds after 3, 10 and 20 hours from administration of hydrocortisone sodium succinate. That is, 0.2 ml of a solution of PQQ·2Na in distilled water was administered to the eggs of group C, 0.2 ml of a suspension of PQQ trimethyl ester in 1% Tween 80 solution was administered to the eggs of group D, 0.2 ml of a suspension of triallyl ester in 1% Tween 80 solution was administered to the eggs of group E, 0.2 ml of a solution of OPQ in 10 mM NaCO3 solution was administered to the eggs of group F, and 0.2 ml of a solution of methyl OPQ in 10 mM NaCO3 solution was administered to the eggs of group G.
Crystal lens was taken out after 48 hours from administration of hydrocortisone sodium succinate and degree of cataract was judged by the criteria according to the Nishigori et al method (Nishigori et al, "Investigative Ophthalmology & Visual Science", Vol. 25, page 1051, 1984).
5 The whole nucleus was hazed in white.

mice [2] = experiment: Kidney Toxicity Determined by Blood Examination (2); format: in vivo; settings: for Creatinine / Glucose / Urea nitrogen: mouse serum
Method: Dosages were 150, 400 and 1000 mg per kg of body weight of mouse.
After lapse of one day from the administration, the mice were fasted (with feeding only water) and then after 15 hours, blood was collected and serum was obtained therefrom. Glucose, urea nitrogen and creatinine in the serum were examined by clinical examination reagent (trademark: FUJI DRYCHEMSLIDE manufactured by Fuji Photo Film Co., Ltd.).

male mice SPF-ICR [3] = experiment: Acute toxicity test (1), intraperitoneal; settings: mouse, in vivo
Method: To male mice SPF-ICR five weeks old (supplied by Japan Charles River Co.) were intraperitoneally administered PQQ·2Na, PQQ trimethyl ester, PQQ triallyl ester, OPQ, 1-methylpropyl OPQ, 2-methylthioethyl OPQ and benzyl OPQ at dosages of 40, 80, 160 and 200 mg per kg of body weight of mouce, respectively and they were bred for 14 days at 25° C. One group consisted of 8 mice. For administration, PQQ·2Na and OPQ and esters thereof were dissolved in physiological saline and PQQ trimethyl ester and PQQ triallyl ester were suspended in 1% Tween 80-containing physiological saline, respectively.

mice [4] = settings: mouse, in vivo, ip
Method: One group consisted of 8 mice. For administration, PQQ·2Na and OPQ and esters thereof were dissolved in physiological saline and PQQ trimethyl ester and PQQ triallyl ester were suspended in 1% Tween 80-containing physiological saline, respectively.
PQQ·2Na, PQQ trimethyl ester, PQQ triallyl ester and OPQ and esters thereof were intraperitoneally administered to mice and they were bred in the same manner as in the above acute toxicity test. Urine of the mice was taken every day and glucose concentration was measured using clinical examination reagent (trademark: […] 2 manufactured by Miles.Sankyo Co.).

[5] = Superoxide scavenging activity (hypoxanthine-xanthine oxidase, DMPO spin trapping, ESR); format: biochemical; settings: Example 1, Table 6; pH 7.3; read-out: O2^- scavenging activity IC50
Description: Activity of PQQ esters to scavenge superoxide (O2^-) produced in the system of hypoxanthinexanthine oxidase was examined by spin trapping method [using 5,5-dimethyl-l-pyrroline-N-oxide (hereinafter referred to as "DMPO") as a spin trapping agent] where electron spin resonance (hereinafter referred to as "ESR") was used.
Hypoxanthine+2O2 →2O2^- +uric acid (xanthine oxidase)
The following reagents were successively put in a test tube and stirred after addition of the hypoxanthine 7 to initiate the reaction and the reaction mixture was transferred to a quartz cell used for measurement of ESR.
Superoxide scavenging activity of OPQ and esters thereof was examined in the same manner as in Example 1.

[6] = not told; for Membrane permeation constant: bovine, 960 min
Method: Permeability of various compounds through capsule of crystal bovine lens was examined in accordance with the method mentioned in "Crystal Lens and Biochemical Mechanism thereof" (pages 436-440) edited by Shuzo Iwata (Medical Aoi Publisher). Each compound dissolved in 10 mM HEPES buffer (containing 1% DMSO in the case of PQQ triesters) was put in an apparatus for measurement of membrane permeation constant and left to stand for 16 hours at 35° C. and then amount of the compound which migrated was measured by ultraviolet absorption (243 nm for PQQ·2Na and 255 nm for PQQ esters) to obtain membrane permeation constant.

[7] = Hydroxy radical scavenging activity (H2O2-(Fe^2+-DTPA), DMPO spin trapping, ESR); format: biochemical; settings: Example 3, Table 8; pH 7.3; read-out: .OH scavenging activity IC50
Description: Activity of PQQ esters to scavenge hydroxy radical (·OH) produced in the system of H2 O2 --(Fe^2+ -DTPA) was examined by spin trapping method [using 5,5-dimethyl-1-pyrroline-N-oxide (hereinafter referred to as "DMPO") as a spin trapping agent] where electron spin resonance (hereinafter referred to as "ESR") was used. DTPA means diethylenetriamine-pentaacetic acid.
H2 O2 +Fe^2 -DTPA complex→·OH+OH^-
The following reagents were successively put in a test tube and stirred after addition of H2 O2 6 to initiate the reaction and the reaction mixture was transferred to a quartz cell used for measurement of ESR.
Hydroxy radical scavenging activity of OPQ and esters thereof was examined in the same manner as in Example 3.

mice [8] = experiment: Kidney Toxicity Determined by Blood Examination (1); format: in vivo
Method: After lapse of one day from the administration, the mice were fasted (with feeding only water) and then after 18 hours, blood was collected and serum was obtained therefrom. Glucose, urea nitrogen and creatinine in the serum were examined by clinical examination reagent (trademark: FUJI DRYCHEMSLIDE manufactured by Fuji Photo Film Co., Ltd.).

[9] = Acute Toxicity Test (2), intraperitoneal; format: in vivo; settings: mouse, in vivo, ip
Method: (§1) To male mice SPF-ICR five weeks old (supplied by Japan Charles River Co.) were intraperitoneally administered PQQ triallyl ester at dosages of 40, 80, 160, 200, 400 and 800 mg per kg of body weight of mouse, respectively and they were bred for 14 days at 25° C. One group consisted of 8 mice. For administration, PQQ triallyl ester was suspended in 1% Tween 80-containing physiological saline.

male mice SPF-ICR [10] = experiment: Acute Toxicity Test (2), intraperitoneal; format: in vivo; settings: 8 mice per group, 14 days
Method: as §1

With `COC(=O)c1cc(C(=O)OC)c2c(n1)C(=O)C(=O)c1cc(C(=O)OC)[nH]c1-2` [PQQ trimethyl ester] the “Judgement 1 (No haze was seen in crystal lens), eggs” value [1] was 1/5, the “Judgement 3 (Clear ring of white haze was seen in crystal lens), eggs” value [1] was 1/5 and the “Judgement 4 ~ 5 (white haze of pinhole size in nucleus ~ whole nucleus hazed in white), eggs” value [1] was 3/5. It also gave a Creatinine (mice [2]; 150 mg/kg) of 0.85 ± 0.08 mg/dL, a Glucose (mice [2]; 150 mg/kg) of 154 ± 23 mg/dL and a Urea nitrogen (mice [2]; 150 mg/kg) of 23 ± 2 mg/dL. For the same compound, the Creatinine (mice [2]; 400 mg/kg) was 0.73 ± 0.05 mg/dL, the Glucose (mice [2]; 400 mg/kg) was 117 ± 21 mg/dL and the Urea nitrogen (mice [2]; 400 mg/kg) was 20 ± 2 mg/dL. The Creatinine (mice [2]; 1000 mg/kg) was 0.73 ± 0.05 mg/dL, the Glucose (mice [2]; 1000 mg/kg) was 125 ± 17 mg/dL and the Urea nitrogen (mice [2]; 1000 mg/kg) was 17 ± 4 mg/dL. For the same compound, the “kidney toxicity” value (mice [2]; mouse, in vivo, 1000 mg/kg) was “No kidney toxicity was recognized”, the mice died (male mice SPF-ICR [3]) was “no mice died” and the “glucose detected in urine” value (mice [4]) was “no glucose was detected in urine”. The glucose in urine (mice [4]; 20 mg/kg) was “-”, the glucose in urine (mice [4]; 40 mg/kg) was “-” and the glucose in urine (mice [4]; 80 mg/kg) was “-”. The glucose in urine (mice [4]; 160 mg/kg) was “-”, the glucose in urine (mice [4]; 200 mg/kg) was “-” and the glucose in urine (mice [4]; 400 mg/kg) was “-”. For the same compound, the glucose in urine (mice [4]; 1000 mg/kg) was “-”, the IC50 [5] was 18.5 nM and the Membrane permeation constant [6] was 1.41 ± 0.48 10 ^-7 cm^2 · sec^-1. The “membrane permeation constant relative to that of PQQ.2Na” value [6] was “about twice”.
For `C=CCOC(=O)c1cc(C(=O)OCC=C)c2c(n1)C(=O)C(=O)c1cc(C(=O)OCC=C)[nH]c1-2` [PQQ triallyl ester], the IC50 [7] was 42000 nM, the “Judgement 1 (No haze was seen in crystal lens), eggs” value [1] was 2/5 and the “Judgement 2 (Slight opaque ring was seen in crystal lens), eggs” value [1] was 1/5. The “Judgement 3 (Clear ring of white haze was seen in crystal lens), eggs” value [1] was 1/5, the “Judgement 4 ~ 5 (white haze of pinhole size in nucleus ~ whole nucleus hazed in white), eggs” value [1] was 1/5 and the “contents of glucose, urea nitrogen and creatinine in serum” value (mice [8]; mice, summary of Table 3) was “nearly the same as those in the case of administration of no compounds”. For the same compound, the Creatinine (mice [8]; mouse serum, 40 mg/kg) was 0.3 ± 0.1 mg/dL, the Glucose (mice [8]; mouse serum, 40 mg/kg) was 42 ± 6 mg/dL and the Urea nitrogen (mice [8]; mouse serum, 40 mg/kg) was 11 ± 4 mg/dL. The Creatinine (mice [8]; mouse serum, 90 mg/kg) was 0.2 ± 0.1 mg/dL, the Glucose (mice [8]; mouse serum, 90 mg/kg) was 47 ± 15 mg/dL and the Urea nitrogen (mice [8]; mouse serum, 90 mg/kg) was 12 ± 3 mg/dL. It also gave a Creatinine (mice [8]; mouse serum, 160 mg/kg) of 0.1 ± 0.1 mg/dL, a Glucose (mice [8]; mouse serum, 160 mg/kg) of 59 ± 16 mg/dL and a Urea nitrogen (mice [8]; mouse serum, 160 mg/kg) of 10 ± 1 mg/dL. For the same compound, the Creatinine (mice [8]; mouse serum, 200 mg/kg) was 0.1 ± 0.1 mg/dL, the Glucose (mice [8]; mouse serum, 200 mg/kg) was 76 ± 6 mg/dL and the Urea nitrogen (mice [8]; mouse serum, 200 mg/kg) was 9 ± 1 mg/dL. The “kidney toxicity” value (mice [8]; mouse, in vivo) was “kidney toxicity was not seen”, the mice died (male mice SPF-ICR [3]) was “no mice died” and the glucose in urine (mice [4]; 20 mg/kg) was “-”. For the same compound, the glucose in urine (mice [4]; 40 mg/kg) was “-”, the glucose in urine (mice [4]; 80 mg/kg) was “-” and the glucose in urine (mice [4]; 160 mg/kg) was “-”. For the same compound, the glucose in urine (mice [4]; 200 mg/kg) was “-”, the glucose in urine (mice [4]; 400 mg/kg) was “-” and the glucose in urine (mice [4]; 1000 mg/kg) was “-”. The IC50 [5] was 12.4 nM, the Membrane permeation constant [6] was 2.42 ± 0.60 10 ^-7 cm^2 · sec^-1 and the LD50 at 336 h [9] was roughly 500 mg/kg. The mice died (male mice SPF-ICR [10]; i.p. 200 mg/kg or less) was “No mice died”, the mice died (male mice SPF-ICR [10]; i.p. 400 mg/kg) was “three mice died” and the mice died (male mice SPF-ICR [10]; i.p. 800 mg/kg) was “eight mice all died”.
In the case of `O=C(O)c1cc(C(=O)O)c2c(n1)C(=O)C(=O)c1cc(C(=O)O)[nH]c1-2` [PQQ.2Na, reference compound], the IC50 [7] is reported as 64000 nM, the “Judgement 1 (No haze was seen in crystal lens), eggs” value [1] is reported as 1/5 and the “Judgement 2 (Slight opaque ring was seen in crystal lens), eggs” value [1] is reported as 2/5. The “Judgement 4 ~ 5 (white haze of pinhole size in nucleus ~ whole nucleus hazed in white), eggs” value [1] was 2/5, the “contents of glucose, urea nitrogen and creatinine in serum” value (mice [8]; mouse, in vivo) was “Sharp reduction of glucose and much increase of urea nitrogen and creatinine” and the “kidney toxicity” value (mice [8]; mouse, in vivo) was “kidney toxicity was recognized”. The Creatinine (mice [8]; mouse, in vivo, 20 mg/kg) was 0.8 ± 0.1 mg/dL, the Glucose (mice [8]; mouse, in vivo, 20 mg/kg) was 70 ± 13 mg/dL and the Urea nitrogen (mice [8]; mouse, in vivo, 20 mg/kg) was 25 ± 3 mg/dL. The Creatinine (mice [8]; mouse, in vivo, 40 mg/kg) was 2.3 ± 1.0 mg/dL, the Glucose (mice [8]; mouse, in vivo, 40 mg/kg) was 60 ± 12 mg/dL and the Urea nitrogen (mice [8]; mouse, in vivo, 40 mg/kg) was 110 ± 38 mg/dL. The Creatinine (mice [8]; mouse, in vivo, 80 mg/kg) was 3.4 ± 0.4 mg/dL, the Glucose (mice [8]; mouse, in vivo, 80 mg/kg) was 57 ± 15 mg/dL and the Urea nitrogen (mice [8]; mouse, in vivo, 80 mg/kg) was 130 ± 18 mg/dL. For the same compound, the Creatinine (mice [8]; mouse, in vivo, 160 mg/kg) was 4.1 ± 0.2 mg/dL, the Glucose (mice [8]; mouse, in vivo, 160 mg/kg) was 35 ± 7 mg/dL and the Urea nitrogen (mice [8]; mouse, in vivo, 160 mg/kg) was 139 ± 3 mg/dL. For the same compound, the mice died (male mice SPF-ICR [3]; ip, 40 mg/kg) was “No mice died”, the mice died (male mice SPF-ICR [3]; ip, 80 mg/kg) was “five mice died” and the mice died (male mice SPF-ICR [3]; ip, 160 mg/kg) was “eight mice all died”. The mice died (male mice SPF-ICR [3]; ip, 200 mg/kg) was “eight mice all died”, the “glucose detected in urine” value (mice [4]) was “glucose was detected in urine” and the glucose in urine (mice [4]; 20 mg/kg) was “-”. For the same compound, the glucose in urine (mice [4]; 40 mg/kg) was “-”, the glucose in urine (mice [4]; 80 mg/kg) was “-” and the IC50 [5] was 38.3 nM. For the same compound, the Membrane permeation constant [6] was 0.68 ± 0.36 10 ^-7 cm^2 · sec^-1.
